US20090182035A1, “USE OF A COMBINATION OF OLOPATADINE AND CILOMILAST TO TREAT NON-INFECTIOUS RHINITIS AND ALLERGIC CONJUNCTIVITIS” (Alcon Research, Ltd., priority 2007, published 2009)

Legend:
[1] = tested on: Guinea Pig Model of Passive Conjunctival Anaphylaxis; experiment: Passive conjunctival anaphylaxis, acute phase clinical score of conjunctivitis; format: in vivo; conditions: 0.1% topical 20 μL drop 60 min prior to ovalbumin challenge, scored 30 min after challenge; for Clinical Score Mean: total score 0 to 10, groups of six; for Clinical Score % Inhibition: versus vehicle only, * P < 0.05
Procedure: (§1) Drugs were prepared in standard ophthalmic suspension vehicle and allowed to vortex overnight. Cilomilast and olopatadine were prepared in the same drop by preparing separate 0.2% formulations and then combining them 50:50 to yield a 0.1% concentration of each drug. In groups where cilomilast and olopatadine were given in consecutive drops, olopatadine was applied first followed 5 minutes later by cilomilast. All topical drops were administered as a single 20 μL application. Guinea pigs (male Hartley outbred, 250-300 g) were divided into groups of six. Animals were passively sensitized to ovalbumin by a single subconjunctival injection to the right eye of 10 μL of undiluted anti-ovalbumin guinea pig serum (antiserum). One group was injected with saline only. Twenty-four hours after sensitization all groups were topically challenged with 0.5 mg of ovalbumin in saline to the right eye. Animals were pre-treated with drug or vehicle 60 minutes prior to challenge. Thirty minutes after topical challenge each animal was scored by a masked observer for clinical signs of conjunctivitis, redness/congestion, swelling, and tearing/discharge, with a total score of 0 to 10. Animals were dosed a second time with drug or vehicle 8 hours after challenge. Animals were euthanized 24 hours after challenge and conjunctivae were collected and assayed for eosinophil peroxidase (EPO) activity, an indirect marker of tissue eosinophil concentration. Briefly, tissue samples were weighed frozen, then mechanically homogenized in 50 mM HEPES buffer, pH 6.5, containing 0.5% cetyltrimethylammonium chloride and 6 mM KBr. Homogenates were freeze-thawed three times and sonicated.

[2] = tested on: eosinophil peroxidase (EPO) activity; experiment: Passive conjunctival anaphylaxis, eosinophil peroxidase (EPO) activity in conjunctivae (allergic inflammation); format: in vivo, guinea pig; conditions: 0.1% topical 20 μL drop 60 min prior to and 8 hours after challenge; for EPO Activity % Inhibition: conjunctivae 24 hours after challenge, versus vehicle only, * P < 0.05; for EPO Activity Mean: conjunctivae collected 24 hours after challenge
Procedure: as §1

SMILES | Clinical Score Mean [1] | Clinical Score % Inhibition [1] | EPO Activity % Inhibition [2] | EPO Activity Mean [2] [ng EPO/mg tisue]
COc1ccc([C@]2(C#N)CC[C@@H](C(=O)O)CC2)cc1OC1CCCC1 [Cilomilast] | 4.2 | 37.5% | 62.8* % | 582.26
CN(C)CC/C=C1/c2ccccc2COc2ccc(CC(=O)O)cc21 [Olopatadine] | 2.2 | 67.5* % | 15.8% | 1320.23
